Molecular target: one or more of HDAC-4, HDAC-5, HDAC-6, HDAC-7, HDAC-8, HDAC-9, HDAC-10 and HDAC-11
Assay: Inhibition of histone deacetylase enzymatic activity (summary statement over isoforms)
Assay type: biochemical
Details: Table 3, selected examples; HDAC isoform not given
How it was run: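 Activity was measured as deacetylation of the fluorogenic substrate Boc-Lys(trifluoroacetyl)-AMC over 20-30 min at 37 °C, after a 5 min room-temperature preincubation of enzyme with compound. Trypsin (1 mg/mL) with a reference HDAC inhibitor ended the reaction.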

Compound | IC50 [nM]
O=C(NO)C(c1ccc(N2CCOCC2)cc1)c1cccc(F)c1F (stereo not drawn) [Compound 6-22] | < 1000
O=C(NO)C(c1ccc(N2CCOCC2)cc1)c1cccc(O)c1 (stereo not drawn) [Compound 6-23, N-hydroxy-2-(3-hydroxyphenyl)-2-(4-morpholinophenyl)acetamide] | < 1000
O=C(NO)C(c1ccc(N2CCOCC2)cc1)c1c(F)cccc1F (stereo not drawn) [Compound 6-24, 2-(2,6-difluorophenyl)-N-hydroxy-2-(4-morpholinophenyl)acetamide] | 1000 to 15000
CSc1cccc(C(C(=O)NO)c2ccc(N3CCOCC3)cc2)c1 (stereo not drawn) [Compound 6-25, N-hydroxy-2-(3-(methylthio)phenyl)-2-(4-morpholinophenyl)acetamide] | < 1000
O=C(NO)C(c1ccc(N2CCOCC2)cc1)c1ccccc1O (stereo not drawn) [Compound 6-26, N-hydroxy-2-(2-hydroxyphenyl)-2-(4-morpholinophenyl)acetamide] | 1000 to 15000
O=C(NO)C(Sc1ncccn1)c1ccccc1 (stereo not drawn) [Compound 6-29, N-hydroxy-2-phenyl-2-(pyrimidin-2-ylthio)acetamide] | 1000 to 15000
CCN(CC)c1ccc(C(C(=O)NO)c2cccc(F)c2)cc1 (stereo not drawn) [Compound 6-37] | < 1000
O=C(NO)C(Sc1cccc(O)c1)c1ccccc1 (stereo not drawn) [Compound 6-38, N-hydroxy-2-(3-hydroxyphenylthio)-2-phenylacetamide] | 1000 to 15000
O=C(NO)C(c1ccccc1)c1ccc(N2CCC2)cc1 (stereo not drawn) [Compound 6-39, 2-(4-(azetidin-1-yl)phenyl)-N-hydroxy-2-phenylacetamide] | < 1000
CN(CCc1ccccc1)c1ccc(C(C(=O)NO)c2ccccc2)cc1 (stereo not drawn) [Compound 6-40, N-hydroxy-2-(4-(methyl(phenethyl)amino)phenyl)-2-phenylacetamide] | < 1000
COc1ccc(-c2ccnc(SC(C(=O)NO)c3ccccc3)n2)cc1 (stereo not drawn) [Compound 6-42, N-hydroxy-2-(4-(4-methoxyphenyl)pyrimidin-2-ylthio)-2-phenylacetamide] | 1000 to 15000
CCN(CCN(C)C)c1ccc(C(C(=O)NO)c2ccccc2)cc1 (stereo not drawn) [Compound 6-43] | < 1000
Cn1cc(C2CCN(C(C(=O)NO)c3ccccc3)CC2)c2ccccc21 (stereo not drawn) [Compound 6-45, N-hydroxy-2-(4-(1-methyl-1H-indol-3-yl)piperidin-1-yl)-2-phenylacetamide] | < 1000
CCN(CCOC)c1ccc(C(C(=O)NO)c2ccccc2)cc1 (stereo not drawn) [Compound 6-46, 2-(4-(ethyl(2-methoxyethyl)amino)phenyl)-N-hydroxy-2-phenylacetamide] | < 1000
Cc1ccccc1OC(C(=O)NO)c1ccccc1 (stereo not drawn) [Compound 7-1, N-hydroxy-2-phenyl-2-(o-tolyloxy)acetamide] | 1000 to 15000
Cc1cccc(OC(C(=O)NO)c2ccccc2)c1 (stereo not drawn) [Compound 7-2, N-hydroxy-2-phenyl-2-(m-tolyloxy)acetamide] | 1000 to 15000
O=C(NO)C(Oc1ccccc1F)c1ccccc1 (stereo not drawn) [Compound 7-5, 2-(2-fluorophenoxy)-N-hydroxy-2-phenylacetamide] | 1000 to 15000
COc1ccc(OC(C(=O)NO)c2ccccc2)cc1 (stereo not drawn) [Compound 7-11, N-hydroxy-2-(4-methoxyphenoxy)-2-phenylacetamide] | 1000 to 15000
O=C(NO)C(Oc1ccc2c(c1)OCO2)c1ccccc1 (stereo not drawn) [Compound 7-17, 2-(benzo[d][1,3]dioxol-5-yloxy)-N-hydroxy-2-phenylacetamide] | 1000 to 15000
CSc1ccc(OC(C(=O)NO)c2ccccc2)cc1 (stereo not drawn) [Compound 7-18, N-hydroxy-2-(4-(methylthio)phenoxy)-2-phenylacetamide] | 1000 to 15000
Cc1ccc(OC(C(=O)NO)c2ccccc2)c(Cl)c1 (stereo not drawn) [Compound 7-20, 2-(2-chloro-4-methylphenoxy)-N-hydroxy-2-phenylacetamide] | 1000 to 15000
O=C(NO)C(Oc1cccc2ccccc12)c1ccccc1 (stereo not drawn) [Compound 7-31, N-hydroxy-2-(naphthalen-1-yloxy)-2-phenylacetamide] | < 1000
O=C(NO)C(Oc1ccc(F)cc1Cl)c1ccccc1 (stereo not drawn) [Compound 7-33, 2-(2-chloro-4-fluorophenoxy)-N-hydroxy-2-phenylacetamide] | 1000 to 15000
O=C(NO)C(Oc1ccc(F)c(Cl)c1)c1ccccc1 (stereo not drawn) [Compound 7-34, 2-(3-chloro-4-fluorophenoxy)-N-hydroxy-2-phenylacetamide] | 1000 to 15000
Cc1ccc(OC(C(=O)NO)c2ccccc2)c2c1CCC2 (stereo not drawn) [Compound 7-35, N-hydroxy-2-(7-methyl-2,3-dihydro-1H-inden-4-yloxy)-2-phenylacetamide] | 1000 to 15000
O=C(NO)C(Oc1ccc2c(c1)CCCC2)c1ccccc1 (stereo not drawn) [Compound 7-36, N-hydroxy-2-phenyl-2-(5,6,7,8-tetrahydronaphthalen-2-yloxy)acetamide] | 1000 to 15000
CC(C)(C)c1ccc(OC(C(=O)NO)c2ccccc2)cc1 (stereo not drawn) [Compound 7-37, 2-(4-tert-butylphenoxy)-N-hydroxy-2-phenylacetamide] | 1000 to 15000
CCCOc1ccc(OC(C(=O)NO)c2ccccc2)cc1 (stereo not drawn) [Compound 7-41, N-hydroxy-2-phenyl-2-(4-propoxyphenoxy)acetamide] | 1000 to 15000
COc1ccc(OC(C(=O)NO)c2ccccc2)cc1OC (stereo not drawn) [Compound 7-42, 2-(3,4-dimethoxyphenoxy)-N-hydroxy-2-phenylacetamide] | 1000 to 15000
O=C(NO)C(Oc1ccc(C(F)(F)F)cc1)c1ccccc1 (stereo not drawn) [Compound 7-44, N-hydroxy-2-phenyl-2-(4-(trifluoromethyl)phenoxy)acetamide] | 1000 to 15000

Reference: patent publication US9096565B2, “Inhibitors of histone deacetylase” (MethylGene Inc., priority 2007, dated 2015)
